In the supplement of paper PMC10307832:

Key:
Assay in all cases: relative viability (nuclei count vs DMSO), 5 days (fraction); higher = more cells survive
[1] = compound: C1=CC2=C(C=CC(=C2)C=C3C(=O)NC(=NCC4=CC=CS4)S3)N=C1 [RO-3306] + CC1(C)CCC(c2ccc(Cl)cc2)=C(CN2CCN(c3ccc(C(=O)NS(=O)(=O)c4ccc(N[C@H](CCN5CCOCC5)CSc5ccccc5)c(S(=O)(=O)C(F)(F)F)c4)cc3)CC2)C1 [Navitoclax] (partner 0.5 µM)
Summary of the method: (§1)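 Lung cancer cell lines were seeded in 1536-well plates and dosed by pin tool the next day, with either a single drug or a fixed anchor-drug dose combined with five library-drug doses (not always all listed) spaced in √10 steps. Five days later, one step fixed the cells and stained their nuclei (final 0.05% Triton X-100, 1% formaldehyde, 1 ug/ml Hoechst), and nuclei were counted on 4× images. Relative viability is the nuclei count in treated wells divided by the count in vehicle wells, and each value is the median of duplicate plates.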

[2] = compound: O=S(=O)(c1ccccc1)N(CC(F)(F)F)c1ccc(C(O)(C(F)(F)F)C(F)(F)F)cc1 + CC(C)C[C@H](NC(=O)[C@H](Cc1ccccc1)NC(=O)c1cnccn1)B(O)O [Bortezomib] (partner 0.002 µM)
Summary of the method: as §1

[3] = compound: O=S(=O)(c1ccccc1)N(CC(F)(F)F)c1ccc(C(O)(C(F)(F)F)C(F)(F)F)cc1 + CCNC(=O)c1noc(-c2cc(C(C)C)c(O)cc2O)c1-c1ccc(CN2CCOCC2)cc1 [Luminespib] (partner 0.01 µM)
Summary of the method: as §1

[4] = compound: C1=CC2=C(C=CC(=C2)C=C3C(=O)NC(=NCC4=CC=CS4)S3)N=C1 [RO-3306] + CC(=O)Nc1cccc(-n2c(=O)n(C3CC3)c(=O)c3c(Nc4ccc(I)cc4F)n(C)c(=O)c(C)c32)c1 [Trametinib] (partner 0.02 µM)
Summary of the method: as §1

In the case of UMC-11, the relative viability ([1]; first compound 0.01 µM) is reported as 0.325, the relative viability ([1]; first compound 0.03162 µM) is reported as 0.312 and the relative viability ([1]; first compound 0.1 µM) is reported as 0.305. For the same cell line, the relative viability ([1]; first compound 0.3162 µM) was 0.321, the relative viability ([1]; first compound 1 µM) was 0.319 and the relative viability ([2]; first compound 0.8 µM) was 0.929. For the same cell line, the relative viability ([2]; first compound 2.53 µM) was 0.743, the relative viability ([2]; first compound 8 µM) was 0.972 and the relative viability ([3]; first compound 0.8 µM) was 1.19. The relative viability ([3]; first compound 2.53 µM) was 1.13, the relative viability ([3]; first compound 8 µM) was 1.13 and the relative viability ([4]; first compound 0.01 µM) was 0.734. For the same cell line, the relative viability ([4]; first compound 0.03162 µM) was 0.679, the relative viability ([4]; first compound 0.1 µM) was 0.641 and the relative viability ([4]; first compound 0.3162 µM) was 0.793. The relative viability ([4]; first compound 1 µM) was 0.531.
